Legend:
Coagulation factor X = Coagulation factor X (Homo sapiens, UniProt P00742); experiment: Inhibitory activity against coagulation factor X
Prothrombin = Prothrombin (Homo sapiens, UniProt P00734); experiment: Inhibitory activity against thrombin

Chain of Coagulation factor X (P00742 41-179 limits assumed): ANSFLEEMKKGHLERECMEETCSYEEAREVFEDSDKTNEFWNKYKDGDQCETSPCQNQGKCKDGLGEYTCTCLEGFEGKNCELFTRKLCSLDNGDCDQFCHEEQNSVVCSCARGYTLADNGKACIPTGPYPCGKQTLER
Chain of Coagulation factor X (P00742 235-488 limits assumed): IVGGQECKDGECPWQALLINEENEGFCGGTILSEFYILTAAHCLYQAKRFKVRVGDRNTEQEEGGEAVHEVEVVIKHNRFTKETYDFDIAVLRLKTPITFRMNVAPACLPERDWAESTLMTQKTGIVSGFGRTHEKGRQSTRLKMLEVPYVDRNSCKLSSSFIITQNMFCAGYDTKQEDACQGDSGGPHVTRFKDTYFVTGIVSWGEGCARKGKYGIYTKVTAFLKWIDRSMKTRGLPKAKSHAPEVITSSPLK

Row | SMILES | IC50 (Coagulation factor X) | IC50 (Prothrombin)
1 | CC(C)Nc1ccc(-c2cccc(N)c2)c(CC(=O)NCc2ccc(C(=N)N)cc2)c1F | > 30 µM | –
2 | CC(C)/N=C1\C=C(O)C(c2ccccc2)=C(CC(=O)NCc2ccc(C(=N)N)cc2)C1=O | – | > 30 µM
